Data reported in US6787527B1, “Methods of preventing and treating HIV infection” (Duke University, priority 1994, dated 2004).

Tests used:
[1] = tested on: U1 cells and OM-10.1 cells (HIV-1 integrated provirus); assay: TNF- or PMA-induced viral RT expression in latently-infected leukemia cells; assay type: cell-based, human; details: 250 μM; 500 U/ml TNF or 80 nM PMA; U1 and OM-10.1 cells
Method: To determine whether OH-Cbl would inhibit the ability of latently-infected leukemia cells to produce RT after stimulation with tumor necrosis factor (TNF) or phorbol myristate acetate (PMA), U1 (U937 monoblastic cell line with HIV-1 integrated provirus) cells (NIH AIDS Repository) and OM-10.1 cells (HL-60 myelobastic cell line with HIV-1 integrated provirus) (Dr. Clay Smith, Duke University, Durham, N.C.) were treated with 500 U/ml TNF or 80 nM PMA (with or without 250 μM OH-Cbl).

HIV-1-IIIB [2] = assay: HIV-1 infection of PBL, supernatant medium RT activity; assay type: cell-based; details: added at viral inoculation and left in throughout culture
Method: (§1) Monocytes and lymphocytes were isolated and cultured as previously described (J. Exp. Med. 174:1477 (1991)). Briefly, monocytes were isolated by sequential ficoll-sodium diazotrate and Percoll gradients with subsequent adherence to cultureware plastic, and then cultured in Dulbecco's modified Eagle medium (GIBCO, Grand Islands, N.Y.) with 10% unheated human serum. Lymphocytes were from ficoll-sodium diazotrate gradients, and were cultured with anti-CD3/anti-CD28 antibody and subsequently IL-2. Reverse transcription (RT) was measured as described (Weinberg et al, J. Exp. Med. 174:1477 (1991)) using a phosphoimager device for quantification. Leukemia cell lines Jurkat, CEM, HL-60, and U937 were obtained from American Type Culture Collection (Rockville, Md.). The cells were cultured in RPMI-1640 with 10% fetal bovine serum (Hyclone, Logan, Utah). Cobalamins were obtained from Sigma Chemical Company (St. Louis, Mo.). The cobalamins had extremely low endotoxin content, as determined by Limulus amebocyte lysate testing (Whitaker Bioproducts, Walkerville, Md.). When tested as a 3 mM solution, the cobalamins had less than 0.25 EU/ml. Cobalamins were not toxic for Mo, Mac, Lym, and leukemia cell line cells, as determined by morphology under phase microscopy, Wright staining of methanol-fixed cells, trypan blue exclusion, and thymidine incorporation were carried out in accordance with standard techniques.
(§2) PBL were inoculated with HIV-1-IIIB (MOI ˜0.1) and cultured with the designated cobalamin for 15-25 days. Supernatant medium RT was then measured. Results are provided as RT activity (mean±SEM of triplicates) and are derived from one experiment.

HIV-1-BaL [3] = assay: HIV-1 infection of monocytes / mononuclear phagocytes (Mo, Mac), supernatant medium RT activity; assay type: cell-based; details: for inhibition of productive HIV-1 infection: Mo, Mac, added at viral inoculation and left in throughout culture
Method: as §1
Monocytes were inoculated at time zero with HIV-1-Bal (Weinberg et al, J. Exp. Med. 174:1477 (1991)) (MOI ˜0.1)and cultured with the designated cobalamin for 7-14 days. Supernatant medium RT was then measured (Weinberg et al, J. Exp. Med. 174:1477 (1991)). Results are provided as RT activity (mean±SEM of triplicates)and are derived from one experiment.

RT = molecular target: T1, RT (Human immunodeficiency virus type 1 group M subtype B, UniProt P04585); assay: RT activity in cell-free medium; assay type: biochemical, HIV-1; details: 1 to 1000 μM added to cell-free medium containing RT
T1 construct: added to cell-free medium containing RT

[4] = molecular target: T2, recombinant CD4 with gp120 from HIV-1-MN (UniProt P01730+P05877); assay: CD4-gp120 binding, gp120 from HIV-1-MN
T2 construct: recombinant CD4 with gp120 from HIV-1-IIIB or HIV-1-MN
Method: (§3) Cobalamins were incubated with CD4 and gp120 from HIV-1-IIIB in wells of microtiter wells, and binding was assessed as previously described. […] Serum from an HIV-1-infected person containing anti-gp120 antibody served as the “positive control”.
(§4) To determine whether cobalamins modified the binding of HIV-1 gp120 to CD4, the abilities of CN-Cbl, OH-Cbl, Me-Cbl, and Ado-Cbl to inhibit binding of recombinant CD4 with gp120 from HIV-1-IIIB or HIV-1-MN were tested (FIG. 2). No inhibition of binding was observed.

[5] = molecular target: T3, recombinant CD4 with gp120 from HIV-1-IIIB (UniProt P01730+P04578); assay: CD4-gp120 binding, gp120 from HIV-1-IIIB
T3 construct: gp120 from HIV-1-IIIB
Method: as §3, §4

HIV-1-BaL [6] = assay: Syncytium (multinucleated giant cell) formation in HIV-1-inoculated monocytes; assay type: cell-based; details: 67 μM, HIV-1-BaL MOI ~0.1, 14 days
Method: OH-Cbl, Me-Cbl, Ado-Cbl, and CN-Cbl were not toxic for Mo, Mac, PBL, or cells of the human leukemia cell lines Jurkat, CEM, HL-60, or U937 at concentrations ≦600 μM. When added to the cultures of Mo, Mac, or PBL at the time of viral inoculation on day zero and left in throughout the culture period, there was potent inhibition of productive infection as judged by supernatant medium RT activity (see FIG. 1). Further evidence of the cobalamin inhibitory effect was derived from studies examining syncytium formation. Populations of monocytes not inoculated with virus were generally mononuclear, while those inoculated with HIV-1-BaL (MOI ˜0.1) cultured (14 days) without OH-Cbl (67 μM) had numerous multinucleated giant cells (syncytium).

HIV-1-IIIB [7] = assay: HIV-1 infection of leukemia cell lines Jurkat, CEM, HL-60, U937, supernatant medium RT activity; assay type: cell-based; details: HL-60, U937 cell lines
Method: as §1
as §2, with “Cells of the T lymphoblast cell line Jurkat and CEM, the myeloblast cell line HL-60, and the monoblast cell line U937” for “PBL”, “cultured for” for “cultured”, “10-20” for “15-25”

[8] = humans, 5 to 7 grams by bolus intravenous infusion; cited from earlier work
[9] = tested on: Mo, Mac, PBL, human leukemia cell lines Jurkat, CEM, HL-60, U937; assay: Toxicity for cells (morphology, Wright staining, trypan blue exclusion, thymidine incorporation); assay type: cell-based; details: concentrations ≦600 μM
Method: as §1, with “When tested as a 3 mM solution, the cobalamins had less than 0.25 EU/ml.” left out

Compound	inhibition of expression of induced viral RT [1]	inhibition of productive HIV-1 infection (HIV-1-IIIB [2])	inhibition of HIV-1 infection (HIV-1-BaL [3]; Mo incubated simultaneously with 250 μM and HIV-1 for 4 hours, washed, cultured 10 days)	inhibition of subsequent RT production (HIV-1-BaL [3]; Mo inoculated and cultured 6 days, washed, then cultured with 250 μM)	inhibition of RT (HIV-1-BaL [3]; Mo pretreated with 250 μM for 24 hours, washed, then inoculated with HIV-1-BaL)	inhibition of productive HIV-1 infection (HIV-1-BaL [3])	inhibition of RT activity (RT)	inhibition of CD4-gp120 binding [4]	inhibition of CD4-gp120 binding [5]	inhibition of syncytium formation (HIV-1-BaL [6]) [%]	inhibition of HIV-1 infection (HIV-1-IIIB [7])	resultant serum levels [8]	side effects [8]	toxicity for cells [9]	inhibitory effect in vitro (HIV-1-BaL [3]; in vitro, summary statement)
C/C1=C2/[N-][C@H]([C@H](CC(N)=O)[C@@]2(C)CCC(=O)NC[C@@H](C)OP(=O)([O-])O[C@H]2[C@@H](O)[C@@H](n3cnc4cc(C)c(C)cc43)O[C@@H]2CO)[C@]2(C)N=C(/C(C)=C3N=C(/C=C4N=C1[C@@H](CCC(N)=O)C\4(C)C)[C@@H](CCC(N)=O)[C@]\3(C)CC(N)=O)[C@@H](CCC(N)=O)[C@]2(C)CC(N)=O.[Co+3].[OH-] [OH-Cbl, hydroxocobalamin]	did not inhibit	inhibited	no inhibition	no inhibition	approximately 80%	inhibited	inhibition of RT activity was not observed	No inhibition	No inhibition	100	did not inhibit	μM to mM	minimal	not toxic	–
cyanocobalamin [CN-Cbl]	–	little or no inhibitory activity	–	–	–	little or no inhibitory activity	inhibition of RT activity was not observed	No inhibition	No inhibition	–	–	–	–	–	little or no inhibitory effect
C/C1=C2/[N-][C@H]([C@H](CC(N)=O)[C@@]2(C)CCC(=O)NC[C@@H](C)OP(=O)([O-])O[C@H]2[C@@H](O)[C@@H](n3cnc4cc(C)c(C)cc43)O[C@@H]2CO)[C@]2(C)N=C(/C(C)=C3N=C(/C=C4N=C1[C@@H](CCC(N)=O)C\4(C)C)[C@@H](CCC(N)=O)[C@]\3(C)CC(N)=O)[C@@H](CCC(N)=O)[C@]2(C)CC(N)=O.[CH3-].[Co] [Me-Cbl]	–	inhibited	–	–	–	inhibited	inhibition of RT activity was not observed	No inhibition	No inhibition	–	did not inhibit	–	–	–	–
C/C1=C2/[N-]C([C@H](CC(N)=O)[C@@]2(C)CCC(=O)NC[C@@H](C)OP(=O)([O-])O[C@H]2[C@@H](O)[C@@H](n3cnc4cc(C)c(C)cc43)O[C@@H]2CO)[C@]2(C)N=C(/C(C)=C3N=C(/C=C4N=C1[C@@H](CCC(N)=O)C\4(C)C)[C@@H](CCC(N)=O)[C@]\3(C)CC(N)=O)[C@@H](CCC(N)=O)[C@]2(C)CC(N)=O.[CH2-][C@H]1O[C@@H](n2cnc3c(N)ncnc32)[C@@H](O)[C@@H]1O.[Co+3] [Ado-Cbl, adencobalamin]	–	inhibited	–	–	–	inhibited	inhibition of RT activity was not observed	No inhibition	No inhibition	–	did not inhibit	–	–	–	–
